Source: patent publication US4067990A, “Process for the preparation of insecticidal compositions based on carbamic esters” (Airwick Industries, Inc., priority 1971, dated 1978)

Test system: common cockroaches
Assay: Test I: insecticidal efficacy of sprayed glass plates after 24 hours, one minute contact, common cockroaches
Format: in vivo, Blatta orientalis
Conditions: compared with Dioxacarb
Method: After a standing time of 24 hours, tests to determine insecticidal efficacy were carried out on common cockroaches, these being placed on the treated face of the glass plate for one minute, and then transferred for observation to ventilated glass jars. […] The proportions recorded are shown below.

CNC(=O)Oc1ccccc1OC(C)C [Arprocarb, 2-isopropoxyphenyl N-methyl-carbamate]
insecticidal behaviour in words: behaves exactly as Dioxacarb
